US9783513B2, “STAT3 inhibitors and their anticancer use” (Ohio State Innovation Foundation, priority 2012, dated 2017)
Where two headings read alike, the source gives them in different places.

Tests used:
[1] = test system: human sarcoma cell line RH30; experiment: Cell viability (MTT) assay, RH30; format: cell-based
Procedure: Human sarcoma cell lines (RD2, RH30, U2OS) were seeded in 96-well plates at a density of 3,000 cells per well. The cells were incubated at 37° C. for a period of 24 hours. Different concentrations of LY-5 (0.1-10 μM), LY-3 (0.1-20 μM), and LLL12 (0.1-10 μM) prepared as a 20 mM stock solution in sterile DMSO were added in triplicate to the plates in the presence of 10% FBS. 3-(4,5-Dimethylthiazolyl)-2, 5-diphenyltetrazoliumbromide (MTT) was added to evaluate cell viability. The absorbance was read at 595 nm. IC50 values were determined using SigmaPlot 9.0 Software (Systat Software, Inc., San Jose, Calif.).
Alternatively, cells were seeded in 96-well plates in triplicate at a density of 3,000 cells per well and given 24 hours to adhere. Cells were then treated with varying concentrations of the inhibitors in the presence of 10% FBS. The cells were incubated for 72 hours at 37° C. 25 μl of MTT dye (Sigma, #M5655) was added to each sample and incubated for 3.5 hours. After this, 100 μl of N,N-dimethylformamide (Sigma, #D4551) solubilization solution was added to each well. The absorbance at 450 nm was read the following day. Half-Maximal inhibitory concentrations (IC50) were determined using Sigma Plot 9.0 software (Systat Software Inc.).
Table 7 below lists specific compounds as well as experimentally determined STAT3 activity in a cell-based assay. The STAT3 activity was determined using the cell viability assays with human sarcoma cell lines (RD2, RH30, U2OS) as described above. The compound reference numbers (“Ref. No.”) in Table 7 correspond to the compound numbers used in Table 3.

STAT3 dimerization = biological target: T1, STAT3 dimerization (Homo sapiens, UniProt P40763); experiment: STAT3 dimerization in transfected HeLa cells; format: cell-based; conditions: flag- and HA-tagged STAT3
T1 construct: expressed in transfected cells; host or cells: HeLa
T1 sequence (P40763 whole entry): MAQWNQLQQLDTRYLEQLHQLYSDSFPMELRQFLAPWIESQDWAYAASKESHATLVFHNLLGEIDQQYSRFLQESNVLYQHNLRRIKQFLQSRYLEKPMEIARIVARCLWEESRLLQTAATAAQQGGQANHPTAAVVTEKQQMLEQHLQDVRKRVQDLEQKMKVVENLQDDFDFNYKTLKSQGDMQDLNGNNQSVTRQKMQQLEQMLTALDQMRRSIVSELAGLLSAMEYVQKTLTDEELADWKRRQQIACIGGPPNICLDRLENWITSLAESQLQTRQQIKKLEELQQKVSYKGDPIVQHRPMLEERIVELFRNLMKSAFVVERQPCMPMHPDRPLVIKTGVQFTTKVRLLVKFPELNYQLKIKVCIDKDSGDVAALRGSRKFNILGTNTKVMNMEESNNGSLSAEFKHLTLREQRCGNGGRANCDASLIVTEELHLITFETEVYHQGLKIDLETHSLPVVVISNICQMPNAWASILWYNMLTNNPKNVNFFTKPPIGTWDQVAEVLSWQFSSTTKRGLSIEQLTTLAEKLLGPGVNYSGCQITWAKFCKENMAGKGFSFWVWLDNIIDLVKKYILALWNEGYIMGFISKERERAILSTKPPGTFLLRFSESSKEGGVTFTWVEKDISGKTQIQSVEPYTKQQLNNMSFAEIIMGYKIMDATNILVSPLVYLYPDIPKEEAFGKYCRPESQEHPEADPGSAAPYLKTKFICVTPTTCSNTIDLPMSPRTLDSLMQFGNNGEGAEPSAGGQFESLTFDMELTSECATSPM

OS-1 tumor xenografts = experiment: OS-1 tumor xenografts; format: in vivo, mouse; conditions: 5 mg/kg via IP for 5 days
Procedure: In order to provide preliminary data regarding potential toxicities from dosing of LY5, C57BL/6 tumor-free mice were treated with daily intraperitoneal (IP) injections of LY5 at 5 or 10 mg/kg for 7 days. […] Additionally, LY5 at a dose of 5 mg/kg via IP for 5 days inhibited growth of OS-1 tumor xenografts (90% tumor volume compared to baseline), while tumor in vehicle treated mice continued to grow (143% tumor volume compared to baseline).

[2] = test system: VEGF induced vessels in Matrigel plugs; experiment: Vascularization of […] plugs in vivo; set-up: species or system mouse
Procedure: To further characterize anti-angiogenetic properties of LY5 in vivo, we performed murine […]™ plug experiments. PBS was used as a negative control, and VEGF (100 ng/mL) as a positive control. […]™ was injected subcutaneously into CB17SC scid−/− female mice, forming semi-solid plugs. Animals received treatment of LY5 (5 mg/kg) I.P. intraperitoneal (i.p.) injection immediately after the […]™ injection and daily for 7 days. On day 7, plugs were excised under anesthesia, fixed in PBS-buffered 10% formalin containing 0.25% glutaraldehyde, and were processed for H&E and Masson's Trichrome staining. Vascular identity of the infiltrating cells was established with CD34 immunostaining. The regions containing the most intense area of neovascularization (“hotspots”) were chosen for analysis. Eight hotspots were identified for each Matrigel […]™ or tumor section. The ImagePro Plus analysis system (Media Cybernetics Inc, Bethesda, Md.) was used to quantify the percentage of area occupied by the vessel-like structures in each field. The mean±SE from each group were compared. The negative control was obtained by tissue staining with secondary antibody only.

AKT and ERK 1/2 = experiment: Western blot, AKT and ERK1/2 phosphorylation; format: cell-based, human
Procedure: RH30 cells were treated with DMSO, LY-5 (0.25-1 μM) and LY-3 (0.5-2.5 μM) prepared as a 20 mM stock solution in sterile DMSO at 60% to 80% confluence in the presence of 10% FBS for 24 hours. The sarcoma cell line EW8 was treated with DMSO and LY-5 (0.5-2.5 μM) prepared as a 20 mM stock solution in sterile DMSO at 60% to 80% confluence in the presence of 10% FBS for 24 hours. MCF-7 cells and DAOY cells were treated with DMSO, 25-50 ng/ml of IL-6, LY-5 (0.25-1 μM) or LY-3 (0.5-2.5 μM) prepared as a 20 mM stock solution in sterile DMSO, protein expressions of P-STAT3 (Tyr705) and STAT3 were tested. DAOY cells were treated with DMSO, 50 ng/ml of IFN-γ, LY-5 (1-5 μM) prepared as a 20 mM stock solution in sterile DMSO, protein expressions of P-STAT3 (Tyr705) and STAT3 were tested. […]
The cells were harvested and lysed in cold radioimmunoprecipitation assay (RIPA) lysis buffer containing […] and phosphatase inhibitor cocktail, and were subjected to SDS-PAGE. […] Membranes were analyzed using Enhanced Chemiluminescence Plus reagents and scanned with the Storm Scanner (Amersham Pharmacia Biotech, Inc., Piscataway, N.J.).
MCF-7 breast cancer cells were seeded in 10 cm plates and allowed to adhere overnight. […] The cells were harvested after 30 minutes and analyzed by Western blot.

SMILES: NS(=O)(=O)c1cccc2c1C(=O)C=C(Nc1cccnc1)C2=O [LY-5, 5,8-dioxo-6-(pyridin-3-ylamino)-5,8-dihydronaphthalene-1-sulfonamide]
- IC50 ([1]; Table 7, read-out: IC50 RH30): 0.55 µM
- IC50 ([1]; Table 8, read-out: IC50 values vs. cell lines, RH30): 0.55 µM
- STAT3 dimerization (STAT3 dimerization): inhibits
- tumor volume compared to baseline (OS-1 tumor xenografts): 90%
- number of CD34 positive vessels in Matrigel plugs ([2]; 5 mg/kg daily, day 7): decrease in number of vessels
- decrease of vessel formation in Matrigel plugs ([2]; 5 mg/kg dose level, VEGF plugs): 85%
- selectivity of phosphorylation inhibition, STAT3 over AKT and ERK 1/2 (AKT and ERK 1/2; MCF-7, OSM 50 ng/mL): selectivity inhibit phosphorylation of STAT3 over AKT and ERK 1/2
- phosphorylation of the kinase ERK1/2 (AKT and ERK 1/2; sarcoma cells, FIG. 1-2): not found to inhibit
